The values that follow come from patent publication US20220054561A1, “LACHNOSPIRACEAE MITIGATES AGAINST RADIATION-INDUCED HEMATOPOIETIC/GASTROINTESTINAL INJURY AND DEATH, AND PROMOTES CANCER CONTROL BY RADIATION” (priority 2018, published 2022).

What all share (assay type): in vivo, mouse
For one experiment, the system named is SPF mice. Put plainly: Tryptophan metabolites treatment and lethal radiation. The settings on record: lethal radiation, monitored 30 days. Here is the method:
Metabolite profiles were measured in fecal samples of AM-Ctrl and ES mice at Day 290 post TBI. Total ion chromatogram (TIC) metabolomic cloudplot (p<0.01) (FIG. 14A) and PCA score plot (14B) show distinct metabolites separation between these two groups. […] In FIG. 14D, metabolic network graphs (MetaMapp) were generated to integrate the biochemical pathways and chemical relationships of all detected metabolites. Identified metabolites are represented by circle nodes, with lower transparency indicating lower p-values from Welch's t-test. Lighter grey nodes denote metabolites with higher abundance in ES group; darker grey nodes denote those higher in AM-Ctrl group. Solid grey lines connecting distinct metabolites symbolize KEGG reactant pair links; dashed grey lines symbolize chemical similarity with a Tanimoto coefficient score >0.7. Tryptophan metabolites are highlighted by a large shadow (labelled), while other metabolite families are distinguished by separate shadowed areas. FIG. 14E is a schematic of tryptophan metabolites treatment. Survival rates (FIG. 14F) and clinical scores (FIG. 14G) were monitored for 30 days. Error bars show SEM, *p<0.05, **p<0.01, ***p<0.001 determined by log-rank (Mantel Cox) test (FIG. 14F) and Mann-Whitney test for area under the curve (AUC) (FIG. 14G). […]

Experiment [1] relates to SPF C57BL/6 mice. Put plainly: Acetate, butyrate or propionate supplemented water for 8 weeks followed by lethal dose TBI. An excerpt:
FIG. 11A is a schematic of short chain fatty acids (SCFAs) treatment. Survival rates (FIG. 11B) and clinical scores (FIG. 11C) were monitored for 30 days. Femurs and spleens were stained for H&E and quantified for BM cellularity and spleen EMH scores (FIG. 11D). White pulp (WP, black dash circles), red pulp (RP, area between black solid lines), and megakaryocytes (black arrows) are shown. […] Total CMP, GMP and MEP percentages of Lin^− cells are shown in the right histogram. Representative images are shown. Mucus layer is indicated by area between dash lines and crypt length is indicated by double-headed arrow. Mucus layer thickness and crypt length were quantified. Error bars show SEM, *p<0.05, **p<0.01, *** p<0.001 determined by log-rank (Mantel Cox) test (B), Mann-Whitney test for area under the curve (AUC) (C) and Student's t test (D, E, F).
SPF C57BL/6 mice were treated with acetate, butyrate or propionate supplemented water for 8 weeks respectively, followed by a lethal dose TBI (FIG. 11A). […] To examine the effect of propionate on the gastrointestinal system, Alcian blue and periodic acid-Schiff (AB/PAS) staining of all intracellular mucin glycoproteins within goblet cells was completed.

The test system of experiment [2] is SPF C57BL/6 mice. Put plainly: Butyrate contained water for 8 weeks followed by total body irradiation. Particulars: butyrate water 8 weeks, TBI; control recipients 43%. Here is the method:
Butyrate production was determined by Mass Spectrometry from Non-TBI controls versus LL-TBI survivors (FIG. 7A), Control Recipients versus Survivor Recipients from dirty cage sharing expt. as shown in FIG. 2A (FIG. 7B), Control Recipients versus Survivor Recipients from FMT in GF mice expt. as shown in FIG. 4A (FIG. 7C). FIG. 7D includes a schematic of butyrate treatment of 6-8 weeks SPF C57BL/6 mice. After 8 weeks of butyrate treatment, recipients received total body irradiation. Survival rates (FIG. 7E), clinical scores (FIG. 7F), body weight changes (FIG. 7G) and body temperatures (FIG. 7H) were monitored for 30 days post TBI. (Control Recipients, n=14; Butyrate Recipients, n=16).
It is well established that Clostridiales and Lachnospiraceae bacterial groups produce short chain fatty acids (SCFAs) via fermentation of dietary polysaccharides^32-34. SCFAs especially butyrate, which is the most commonly studied SCFA, are important substrates for maintaining intestinal epithelium and play a role in regulating immune system and inflammatory response. Increased abundance of Lachnospiraceae is expected to enhance the capability to produce SCFAs. To validate this hypothesis, the concentrations of lactate, propionate, isobutyrate and butyrate were detected in each individual Lachnospiraceae strain within the disclosed 23 stains pool. […]

The structures appear in SMILES notation.

On to `O=Cc1c[nH]c2ccccc12` [I3A, indole-3-carboxaldehyde], for which the survival rates entry in the experiment with SPF mice is “around 75%”. On the same count and under the same terms, for `O=C(O)c1cc(=O)c2ccccc2[nH]1` [KYNA, kynurenic acid] the value was “around 75%”. Consider `CC(=O)O` [acetate], for which the “protection (survival, clinical scores)” value in the experiment with SPF C57BL/6 mice [1] (supplemented water 8 weeks, lethal dose TBI) is “slight protection”. As for `CCCC(=O)O` [butyrate], the thirty-day survival rate with SPF C57BL/6 mice [2] is given as 68%. With `CCC(=O)O` [propionate], the bone marrow cellularity entry in the experiment on SPF C57BL/6 mice [1] (H&E femurs) was “Elevated bone marrow cellularity”. Further, the “mucus thickness and crypt length” value in the experiment on SPF C57BL/6 mice [1] (colon AB/PAS staining, versus control) is reported as “significantly increased”. The “total Sca1−cKit+ progenitor cells (GMP, CMP, MEP) in BM” value with SPF C57BL/6 mice [1] (flow cytometry, versus control recipients) was “significant increase”. For the same compound, in the experiment on SPF C57BL/6 mice [1] (supplemented water 8 weeks, lethal dose TBI, control group 28%), the Thirty-day survival rates came to 79%. Moreover, in the experiment on SPF C57BL/6 mice [1] (versus control group), the clinical scores result is “lower clinical scores”.
